Assay results taken from EP0287128A1, “Antitumor agent” (RESEARCH CORPORATION TECHNOLOGIES, INC., priority 1987, dated 1988).

Experiments:
Lewis lung carcinoma = assay: in vivo
Excerpt: (§1) The tumor tissue was obtained from mice bearing 7 to 10 day old tumors. To obtain the tumors, the animals were sacrificed by cervical dislocation. Tumors were removed aseptically and placed into petri dishes containing ice-cold phosphate buffered saline. Tumors were debrided, necrotic tissue was removed and viable tissue was cut into 2-3 mm fragments. These fragments were loaded into 13-gauge trochars for implantation. Animals were weighed prior to each i.p. injection, which began one day after implantation unless otherwise noted, so that the volume of injection could be adjusted to their individual weight.
(§2) Animals were implanted with Lewis lung carcinoma. Five animals were given FdC (12mg/kg) + H₄U 25mg/kg + BAU 9mg/kg 1/day × 7 days starting on day 1. Comparisons included FUra (25mg/kg) and FUra + BAU (10mg/kg).
(§3) Animals were implanted with Lewis lung carcinoma. Seven animals were given FdC (12mg/kg) + H₄U (25mg/kg) + BAU (30mg/kg). Comparisons included FUra 25 mg/kg and FUra + BAU (30mg/kg). The treatment schedule was as in Example 1A.
(§4) Animals were implanted with Lewis lung carcinoma. The treatment schedule was as described above. A comparison was made with FdU tested at its maximum tolerated dose, 75mg/kg. […] "Day of breakout" indicates the day tumor growth was first noticed in a group of animals in which tumor growth was arrested or in which tumor regression occurred.
(§5) Mice were implanted bilaterally with Lewis lung carcinoma (see Table 3).
(§6) Animals were implanted with Lewis lung carcinoma (see Table 4).

[1] = tested on: mammary adenocarcinoma-755 in its ascitic form; assay: Mammary adenocarcinoma-755, ascitic form, injected i.p. into mice; assay type: in vivo, BD2F₁ mice; conditions: for Day of Death / # Cures /6 mice / % Cures / mean day of death / Maximum Weight Loss / T/C: Table 7; for Day of Death: individual animals; for Day of Death / # Cures /6 mice / % Cures / mean day of death / T/C: mg/kg: FdC 12, H4U 25, BAU 10, FUra 26 (with BAU); for Maximum Weight Loss: mg/kg: FdC 12, H4U 25, BAU 10, FUra 26 (with BAU; alone not given); for T/C: not including cures
Excerpt: Forty-eight hours later (day 2) treatment 1/day × 7) was initiated.

in vivo = conditions: mouse, in vivo
Excerpt: as §1, §2, §3, §4, §5, §6

[2] = Example 2, BAU 30 mg/kg, H4U 25 mg/kg, administered without a fluorinated pyrimidine analog
[3] = Table 3, one cycle (I) or no cycle mark, mg/kg: FdU 70, FdC 12, H4U 25, BAU 30 where given

**Q.** Which results are given for O=c1[nH]c(=O)n(COCCO)cc1Cc1ccccc1 [BAU, benzacyclouridine]?
**A.** cures (Lewis lung carcinoma; [2]): no cures; mean day of death (Lewis lung carcinoma; [2]): no increase; tumor inhibition (Lewis lung carcinoma; [2]): no significant tumor inhibition

**Q.** Which results are given for O=c1[nH]cc(F)c(=O)[nH]1 [FUra, 5-fluorouracil]?
**A.** cures (Lewis lung carcinoma; Examples 1A and 1B together, i.p. 1/day x 7 days from day 1, mg/kg: FdC 12, H4U 25, BAU 9 or 30, FUra 25): No cures; # of cures/6 ([1]; Table 6, inoculum 10^7 cells, mg/kg: FdC 12, H4U 25, BAU 10, FUra 25, FdU 60): No cures; Day of Death ([1]; inoculum 5 x 10^5 cells): 17,18 21,22; Day of Death ([1]; inoculum 10^5 cells): 17,19 21,33; # Cures /6 mice ([1]; inoculum 5 x 10^5 cells): 1; % Cures ([1]; inoculum 5 x 10^5 cells): 17%; mean day of death ([1]; inoculum 5 x 10^5 cells, control 12.5): 19.2; Maximum Weight Loss ([1]; inoculum 5 x 10^5 cells): 17.4; # Cures /6 mice ([1]; inoculum 10^5 cells): 2; % Cures ([1]; inoculum 10^5 cells): 33%; mean day of death ([1]; inoculum 10^5 cells): 20.0; Maximum Weight Loss ([1]; inoculum 10^5 cells): 17.0; T/C ([1]; inoculum 5 x 10^5 cells): 1.51; T/C ([1]; inoculum 10^5 cells): 1.57

**Q.** Which MTD at 7 days (in vivo) does the source give for O=c1[nH]c(=O)n([C@H]2C[C@H](O)[C@@H](CO)O2)cc1F [FdU, 5-fluorodeoxyuridine] here?
**A.** 75 mg/kg

**Q.** And the “% Tumor Inhibition” value (Lewis lung carcinoma; Table 3, day 10, one cycle (I) or no cycle mark, mg/kg: FdU 70, FdC 12, H4U 25, BAU 30 where given)?
**A.** 83%

**Q.** What about the “% Tumor Inhibition” value (Lewis lung carcinoma; Table 3, day 14, one cycle (I) or no cycle mark, mg/kg: FdU 70, FdC 12, H4U 25, BAU 30 where given) of the same molecule?
**A.** 74%

**Q.** What about the “% Tumor Inhibition” value (Lewis lung carcinoma; Table 3, day 18, one cycle (I) or no cycle mark, mg/kg: FdU 70, FdC 12, H4U 25, BAU 30 where given) of the same molecule?
**A.** 58%

**Q.** And the “% Tumor Inhibition” value (Lewis lung carcinoma; Table 3, day 22, one cycle (I) or no cycle mark, mg/kg: FdU 70, FdC 12, H4U 25, BAU 30 where given)?
**A.** 42%

**Q.** What about the “% Tumor Inhibition” value (Lewis lung carcinoma; Table 3, day 26, one cycle (I) or no cycle mark, mg/kg: FdU 70, FdC 12, H4U 25, BAU 30 where given) of the same molecule?
**A.** 31%

**Q.** And the “% Tumor Inhibition” value (Lewis lung carcinoma; Table 3, day 38, one cycle (I) or no cycle mark, mg/kg: FdU 70, FdC 12, H4U 25, BAU 30 where given)?
**A.** 19%

**Q.** And the T/C (Lewis lung carcinoma; Table 3, mean day of death T/C, one cycle (I) or no cycle mark, mg/kg: FdU 70, FdC 12, H4U 25, BAU 30 where given, * not including cures)?
**A.** 1.24

**Q.** What about the “# Cures /6” value (Lewis lung carcinoma; [3]) of the same molecule?
**A.** 0

**Q.** And the “# Toxic Deaths /6” value (Lewis lung carcinoma; [3])?
**A.** 0

**Q.** And the “Maximum % Weight Loss” value (Lewis lung carcinoma; [3])?
**A.** 19%

**Q.** What about the “Mean Day of Death” value (Lewis lung carcinoma; Table 3, one cycle (I) or no cycle mark, mg/kg: FdU 70, FdC 12, H4U 25, BAU 30 where given, * not including cures, control 21.1) of the same molecule?
**A.** 26.0

**Q.** Which cures (Lewis lung carcinoma; [2]) does the source give for O=C1NC(O)CCN1[C@@H]1O[C@H](CO)[C@@H](O)[C@H]1O (some centres unmarked) [H₄U, tetrahydrouridine] here?
**A.** no cures

**Q.** What about the “mean day of death” value (Lewis lung carcinoma; [2]) of the same molecule?
**A.** no increase

**Q.** What about the “tumor inhibition” value (Lewis lung carcinoma; [2]) of the same molecule?
**A.** no significant tumor inhibition
